One may read the pKd as the Kd on a negative log10 scale, so that one unit is a factor of ten. Low readings indicate a large Kd, high ones a small Kd.

pKd: −log10 of the molar value.

The values that follow come from PMC6357863, “Dithiocarbamate-inspired side chain stapling chemistry for peptide drug design” (Chemical Science, 2018).

One data set has as its system HCT116 cells. Nature of the data set: Cellular uptake by confocal microscopy. Type of data set: cell-based, human. As to conditions: 20 μM peptide N-terminally conjugated to FITC via aminocaproic acid, HCT116 p53+/+ cells, 4 h, fixed, DAPI. As for the experimental part:
Although cationicity is not a universal molecular signature of cell-penetrating peptides, it plays a critical role in the ability of stapled peptides to traverse the cell membrane to exert biological activity.[10],[22],[28]
Cellular uptake of DTCPMI. A fluorescent FITC moiety was appended via an aminocaproic acid to the N- […]
and allowed to grow overnight. Cells were then incubated with 20 µM FITC-DTCPMI for 4 h. Cells were washed with Dulbecco's phosphate buffered saline, fixed with 4% (wt/vol) paraformaldehyde, finally incubated by DAPI to stain the cell nucleus. Imaged using an LSM 510 Zeiss Axiovert 200M (v4.0) confocal microscope. Images were analyzed using an LSM image browser. […]
μM) in serum-free media for 8 hours. The cells were lysed (20 mM Tris-HCl pH 8.0, 0.8 % SDS, 1 mM PMSF, 1 U mL-1 benzonase nuclease) and the crude lysates were clarified by brief centrifugation and total protein concentration was determined by using the Pierce BCA protein assay. Aliquots containing 5 μg of total protein were run on 4-12% Bis-Tris polyacrylamide gels (Invitrogen). Proteins were detected by chemiluminescence reagent (Perkin Elmer) using antibodies specific for p53 (Santa Cruz Biotechnology), MDM2 (Santa Cruz Biotechnology), p21 (Merck Millipore), and β-actin (Sigma-Aldrich). […]

The next data set in a line: circular dichroism. As to conditions: phosphate buffer (PB); pH 7.2; 20 °C; 10-50 uM. For orientation: CD spectra are sensitive to the conformation of chiral molecules.
A short description of data set [1]: Circular dichroism spectroscopy, helical content. Type of data set: physicochemical. The settings on record: CD, PB pH 7.2, 10-50 μM peptide, 20 °C. As for the experimental part: Circular Dichroism (CD) Spectroscopy.
(§1) from 10-50 μM. […] The spectra were […]

A further data set concerns HCT116 p53+/+ cells. Nature of the data set: Cell viability assay (CCK8), HCT116 p53+/+. Type of data set: cell-based, human. The settings on record: concentrations of up to 50 μM, 8 h serum-free then 64 h with serum. As for the experimental part:
(§2) and three independent experiments were performed. […]
(§3) Tecan Infinite M1000 plate reader.
(§4) additional incubation for 64 hours. […]

For another data set, the system named is HCT116 p53-/- cells. The data set is described as follows: Cell viability assay (CCK8), HCT116 p53-/-. Type of data set: cell-based, human. As to conditions: concentrations of up to 50 μM, 8 h serum-free then 64 h with serum. As for the experimental part: as §2
(§5) As an additional positive control, we
as §3, §4

The target in data set [2] is T1, synthetic 24–108MDMX (p53-binding domain) (Homo sapiens, UniProt O15151).
T1 construct: made in house; host or cells: total chemical synthesis (native chemical ligation of 24-75 thioester with 76-108); no expression host
T1 sequence (O15151 24-108): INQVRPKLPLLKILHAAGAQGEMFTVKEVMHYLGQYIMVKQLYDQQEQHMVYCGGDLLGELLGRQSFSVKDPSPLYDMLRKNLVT
Nature of the data set: SPR-based competition binding assay on 15–29p53-immobilized CM5 chip, MDMX. As to conditions: 25 °C, MDMX at 100 nM, 10 mM HEPES, 150 mM NaCl, 0.005% P20, pH 7.4, free MDMX quantified on 15–29p53 chip, two replicates, three independent experiments. As for the experimental part: and three independent experiments were performed.
Fluorescence polarization (FP).
as §5
Tecan Infinite M1000 plate reader. […]
additional incubation for 64 hours.
Circular Dichroism (CD) Spectroscopy. […]
as §1
of each peptide was calculated as reported previously. 12
Stability in GSH. […] RP-

Consider `CC(=O)N[C@H](C(=O)N[C@@H](CO)C(=O)N[C@@H](Cc1ccccc1)C(=O)N[C@H]1CCCCNC(=S)SC[C@@H](C(=O)N[C@@H](CC(C)C)C(=O)N[C@@H](CC(C)C)C(=O)N[C@@H](CO)C(=O)N[C@@H](CCCNC(=N)N)C(N)=O)NC(=O)[C@H](Cc2c[nH]c3ccccc23)NC(=O)[C@H](Cc2ccc(O)cc2)NC(=O)[C@H](CCC(N)=O)NC1=O)[C@@H](C)O` [^DTCPMI], for which, in the data set with HCT116 cells, the “intracellular localization (confocal microscopy)” value is “diffused intracellular localization”. In addition, the helicity in “circular dichroism” is 62.2%.

Take `CC(=O)N[C@H](C(=O)N[C@@H](CO)C(=O)N[C@@H](Cc1ccccc1)C(=O)N[C@@H](CCCCN)C(=O)N[C@@H](CCC(N)=O)C(=O)N[C@@H](Cc1ccc(O)cc1)C(=O)N[C@@H](Cc1c[nH]c2ccccc12)C(=O)N[C@@H](CS)C(=O)N[C@@H](CC(C)C)C(=O)N[C@@H](CC(C)C)C(=O)N[C@@H](CO)C(=O)N[C@@H](CCCNC(=N)N)C(N)=O)[C@@H](C)O` [^DTCPMI Ctrl.]: the “α-Helix (%)” value in data set [1] was determined as 16.6%. In addition, in the data set with HCT116 p53+/+ cells, the “anti-proliferative activity against HCT116 p53+/+” value is “no anti-proliferative activity”. The “anti-proliferative activity against HCT116 p53-/-” value with HCT116 p53-/- cells was “no anti-proliferative activity”. The same molecule gave a helicity in the data set “circular dichroism” of 16.6%.

In “circular dichroism”, `CC(=O)N[C@H]1CCCCNC(=S)SC[C@@H](C(=O)N[C@@H](Cc2ccc(O)cc2)C(=O)N[C@@H](Cc2c[nH]c3ccccc23)C(=O)N[C@@H](CC(N)=O)C(=O)N[C@@H](CC(C)C)C(=O)N[C@@H](CC(C)C)C(=O)N[C@@H](CO)C(=O)N2CCC[C@H]2C(N)=O)NC(=O)[C@H](C)NC(=O)[C@H](Cc2ccccc2)NC(=O)[C@H](CO)NC1=O` [PMI(1,5)-a] had a helicity of 6.5%. This molecule had a pKd in data set [2] of less than 6.30.
